From PMC3714604 (European journal of medicinal chemistry, 2011)
Read-outs that look alike come from different tables or passages of the source.

Legend:
[1] = tested on: rat brain membrane FAAH; settings: cited from earlier work
[2] = In vitro stability in rat liver S9 fraction with NADPH-regenerating system; type: in vitro ADME; settings: for half-life: male, Wistar, rat, s9, pH 7.4
[3] = In vitro chemical stability at alkaline pH; type: physicochemical; settings: 1 μM, 300 nM, 100 nM
[4] = tested on: FAAH; settings: rats; ref [24]; cited from earlier work
[5] = rat brain membrane FAAH activity, ref [24] and [38]

| Compound | pIC50, inhibitory potency toward FAAH in vitro activity [1, 5] | other results |
| --- | --- | --- |
| O=C(NCCCCCCc1ccccc1)Oc1cccc(-c2ccccc2)c1 [Compound 17] | 7.89 | – |
| O=C(NC12CC3CC(CC(C3)C1)C2)Oc1cccc(-c2ccccc2)c1 [Compound 10] | 5.39 | stability to in vitro liver metabolism ([2]; rat liver S9, entire testing period): remained stable for the entire testing period; dependence of pseudo half-lives on concentration at pH 9.0 [3]: No significant difference |
| NC(=O)c1cccc(-c2cccc(OC(=O)NCc3ccc4ccccc4c3)c2)c1 [Compound 19] | – | pIC50, inhibitory potency toward FAAH in vitro activity [1]: 9.20 |
| O=C(NC1CCCC1)Oc1cccc(-c2ccccc2)c1 [Compound 8] | 7.47 | – |
| CNC(=O)Oc1cccc(-c2ccccc2)c1 [Compound 3] | 4.86 | – |
| CCCCNC(=O)Oc1cccc(-c2ccccc2)c1 [Compound 5] | 6.95 | half-life [2]: < 2 min |
| O=C(NCCCCc1ccccc1)Oc1cccc(-c2ccccc2)c1 [Compound 16] | 8.03 | dependence of pseudo half-lives on concentration at pH 9.0 [3]: No significant difference; ID50, in vivo potency on FAAH inhibition [4]: 0.96 mg/kg |
| O=C(NCc1ccc2ccccc2c1)Oc1cccc(-c2ccccc2)c1 [Compound 15] | 8.27 | – |
| O=C(NC1Cc2ccccc2C1)Oc1cccc(-c2ccccc2)c1 [Compound 13] | 6.67 | half-life [2]: > 60 min |
| O=C(NCc1ccccc1)Oc1cccc(-c2ccccc2)c1 [Compound 11] | 6.86 | – |
| O=C(NC1CCCCC1)Oc1cccc(-c2ccccc2)c1 [Compound 1] | 7.20 | dependence of pseudo half-lives on concentration at pH 9.0 [3]: No significant difference; ID50, in vivo potency on FAAH inhibition [4]: 0.81 mg/kg |
| O=C(NCC1CCCCC1)Oc1cccc(-c2ccccc2)c1 [Compound 9] | 7.18 | – |
| O=C(NCCc1ccccc1)Oc1cccc(-c2ccccc2)c1 [Compound 12] | 6.32 | – |
| O=C(NCCCCCCN1CCOCC1)Oc1cccc(-c2ccccc2)c1 [Compound 18] | 7.40 | – |
| O=C(NC1CCC1)Oc1cccc(-c2ccccc2)c1 [Compound 7] | 7.27 | – |
| CC(C)NC(=O)Oc1cccc(-c2ccccc2)c1 [Compound 4] | 6.28 | half-life [2]: < 2 min |
| CCCCCCNC(=O)Oc1cccc(-c2ccccc2)c1 [Compound 6] | 7.24 | – |
